Entries after “also recorded” stand apart in the source; their conditions may differ. Like-named read-outs stand apart in the source and are kept apart here. No end group written: not given here.
Tests used:
RAW264.7 macrophages = format: cell-based, murine; conditions: for IC50: 2 h; for LC50 (cytotoxicity): toxicity, XTT, 2 hours incubation (method: LC50), read-out: IC50 macrophages RAW264.7
Experimental: (§1) All in vitro assays were performed on RAW264.7 murine macrophages (ATCC-TIB71). Cells were grown in DMEM supplemented with 10% FBS, L-glutamine, sodium pyruvate, non-essential amino acids and antibiotics (Biological Industries, Beit Haemek, Israel). Incubator was set on 37° C. with a humidified atmosphere containing 5% CO2.
1×10^4 cells per well were grown overnight on a 96-well plate. The following day, the media were replaced with 90 μl fresh culture medium and 10 μl solution buffer containing different concentrations of the different peptides. Peptide concentrations ranged from 0.78-100 μM. The cells were then incubated for 2 hours before adding to each well 50 μl of 2,3-bis-2H-tetrazolium-5-carboxanilide inner salt (XTT) reaction solution (Biological Industries). Viability was determined as described previously (Makovitzki et al. Cancer Res 69, 3458-63, 2009; Papo et al. 2006). The LC50 (the concentration at which 50% of the cells die) for each peptide was obtained from the dose-dependent cell viability curves.

E. coli 25922 = format: cell-based
Experimental: (§2) The antibacterial activity of the peptides was examined in sterile 96-well plates (Nunc F96 microtiter plates) in a final volume of 100 μl, as follows. Aliquots (50 μl) of a suspension containing bacteria at a concentration of 10^6 colony-forming units/ml in culture medium (LB medium) were added to 50 μl of peptide serially diluted in culture medium (100 μM-0.78 μM). Inhibition of growth was determined by eye after an incubation of 18-20 h at 37° C. Antibacterial activities were expressed as the minimal inhibitory concentration, the concentration at which 100% inhibition of growth was observed after 18-20 h of incubation. In these the effect of the peptides on E. coli (ATCC:25922) and S. aureus (ATCC:6538P) was tested.

S. aureus 6538P = format: cell-based
Experimental: as §2

[1] = LPS binding assay with NBD-labeled peptides; conditions: NBD-labeled peptide affinity to LPS
Experimental: NBD-labeled peptides (50 μl, 2 μM, PBS^−/− 2% DMSO) were added to different concentrations of LPS (50 μl PBS^−/−) in a opaque black 96 well plate. After 10 minutes of incubation at room temperature, the fluorescence was measured using an excitation of 467 nm and emission of 530 nm. The data were plotted and Kd and Bmax values obtained using NLLSQ analysis.

Balb/c mice = experiment: Antigen (OVA) induced anaphylactic shock; format: in vivo; conditions: for Survival of anaphylactic shock (%): i.v. 10-15 mg/kg, 30-45 minutes prior to soluble OVA challenge
Experimental: The inhibitory capacity of the Kn(AL)nKn peptides was tested in the most rigorous manner for inhibition of otherwise fatal anaphylaxis. In this model, Balb/c mice were immunized by an i.p. injection of 100 μg OVA in 5 mg Alum and 1.5 μg pertusis, a protocol that favors IgE-type of response. Three weeks later the immunized mice received an i.v. injection of soluble OVA (3.5-5 μg), resulting in a rapid and aggressive anaphylactic shock. In this specific model, the immunized mice die within 10-20 minutes after the systemic (i.v.) OVA injection.
To test the ability of the peptides of the invention to inhibit anaphylactic shock formation, an i.v. injection of the K2(AL)8K2 peptide at 10-15 mg/kg was administered, 30-45 minutes prior to the soluble OVA challenge. Strikingly, this single injection rescued 87% of the sensitized mice (Table 7). […] In several mice that were protected by the K2(AL)8K2 peptide, the protection lasted for at least 2 days. Peptide treated mice died of anaphylactic shock only after systemic injection of a very high dose of OVA. Still, the exact conditions for optimum protective activity need to be validated.

RBL cells = format: cell-based, rat
RBL-2H3 cells = experiment: IgE and DNP-BSA mediated degranulation (β-hexoseaminidase release); format: cell-based, rat; conditions: for Inhibition of Degranulation (%): peptide concentration 20 μM, derived from FIG. 9A
Experimental: In order to study the specific effect of the peptides of the invention on direct IgE mediated degranulation, the rat basophilic cell line (RBL-2H3) was used. This cell line expresses high levels of surface IgE receptor that binds IgE with high affinity (FcεRI). Upon adding an allergen (IgE antigen) there is a cross-linking of adjacent FcεRs that results in degranulation and release of histamine. Degranulation was measured as release of intracellular β-hexoseaminidase (Nunomura et al., Int Immunol 17, 685-94, 2005).
In this assay system, RBL cells were incubated with the DNP-specific murine monoclonal IgE SPE7 (Eshhar et al., J Immunol 124:775, 1980) for 2.5 hours. The cells were washed and centrifuged and then further incubated with the DNP-BSA antigen that crossed-link the FcεRI bound IgE. Next, extracellular hexoseaminidase levels were evaluated by their ability to hydrolyze the 4-nitrophenyl-N-acetyl-β-D-glucosaminide substrate which results in the accumulation of a colored product. The tested peptides (see Table 5) were added at different concentrations and stages of the assay and tested for their ability to inhibit this reaction.
In the first set of experiments, RBLs were incubated with different concentrations of the (AL)6AK2 peptide or irrelevant control peptide (alpha subunit peptide) in the presence of IgE. Following incubation, the cells were washed and DNP10-BSA with peptide was added to crosslink adjacent FcεRI (FIG. 6). Following incubation, the cells were washed and suspended in the degranulation medium for either 30 (FIG. 6A) or 60 min. (FIG. 6B).

C57BL mice = experiment: In vivo toxicity in mice; conditions: 100 mg/kg i.p.
Experimental: Toxicity was tested by intraperitoneal injection of K2(AL)8K2 (100 mg/kg in 400 μl saline) in female C57B1 mice (n=2). Mice were continuously observed for 1 hour immediately following injection and once per day for 7 days. To examine the effect of our peptides on acute septic shock driven by LPS hyperactivation of TLR4 we have used murine models as described before (Zheng et al. Int Immunopharmacol 10, 1209-19, 2010; Arima et al, 2005). Briefly, 12 weeks old C57 Black female mice were treated with 100 ng of LPS injected IP in a saline solution (200 μl, pH 6.5) containing 200 mg/ml of D-galactosamine (Calbiochem). Treated mice received one IP injection of 10 mg/kg peptide dissolved in saline (200 μl) following the LPS injection. In the second model heat-killed bacteria were used to induce a lethal septic shock. E. coli cells were grown to a mid log phase (OD=0.5) at 37° C., cooled on ice, and centrifuged at 3500 rpm for 10 minutes at 4° C. The cells were re-suspended in saline for a concentration of 2×10^9 cells in 200 μl and heated at 95° C. for 30 minutes. Each animal received an IP injection of 2×10^9 cells in 200 μl saline followed by injection of 10 mg/kg peptide dissolved in saline (200 μl). Animals were monitored for survival and for signs of sepsis for the next 14 days after LPS injection. Peptides used as the acetic acid salts for in vivo experiments. […]

TLR4 activation by LPS = experiment: TNFα secretion by RAW264.7 macrophages stimulated with LPS; format: cell-based, murine; conditions: for inhibition of LPS activation of macrophages (TNFα secretion), in words: LPS 10 ng/ml, peptide 20 μM (FIGS. 1A, 2)
Experimental: as §1
(§3) 2×10^5 cells per well were cultured overnight in a 96-wells plate. The following day, the media were replaced by fresh DMEM, including all supplements. Peptides were dissolved in DMSO and added to the cells in different concentrations. Final concentration of DMSO was 1% for all groups. Cells were incubated with the peptide for 2 hours, then LPS (TLR4 activator) or LTA (TLR2 activator) was added to the cells at 10 ng/ml or 500 ng/ml, respectively. The cells were further incubated for 5 hrs at 37° C., after which samples of the media from each treatment were collected and stored at −20° C. TNFα concentration in each sample was evaluated using a mouse TNFα enzyme-linked immunosorbent assay kit (Biosource™ ELISA, Invitorgen), according to the manufacturer's protocol. All experiments were done in triplicates.

TLR2 activation by LTA = experiment: TNFα secretion by RAW264.7 macrophages stimulated with LTA; format: cell-based, murine; conditions: LTA 500 ng/ml; peptide 20 μM (FIG. 1A)
Experimental: as §1, §3

[2] = 100% inhibition of growth after 18-20 h

| Substance | IC50 (RAW264.7 macrophages) [µM] | MIC E. coli 25922 (E. coli 25922; 25922) [µM] | MIC S. aureus 6538P (S. aureus 6538P; 6538P) [µM] | Kd [1] [µM] | further results |
| --- | --- | --- | --- | --- | --- |
| KALALALALALALAK-NH2 [K(AL)6AK] | > 100 | >100 | >100 |  |  |
| KKALALALALALALALALKK [4D-K2(AL)8K2] |  |  |  | 15.6 | LC50 (cytotoxicity) (RAW264.7 macrophages): > 100 µM; MIC E. coli 25922 (E. coli 25922; [2]): 100 µM; MIC S. aureus 6538P (S. aureus 6538P; [2]): 100 µM |
| KKALALALALALALALALALALAKK [K2(AL)10AK2] |  |  |  |  | Survival of anaphylactic shock (%) (Balb/c mice): 50% |
| ALALALALALALAKK-NH2 [(AL)6AK2, ALALALALALALAKK] | > 100 | >100 | >100 |  | killing or growth inhibition of RBL cells (RBL cells): did not kill or inhibited the growth |
| ALALALALALALALALALKK [4D-(AL)9K2] |  |  |  |  | LC50 (cytotoxicity) (RAW264.7 macrophages): 50 µM; MIC E. coli 25922 (E. coli 25922; [2]): >100 µM; MIC S. aureus 6538P (S. aureus 6538P; [2]): >100 µM |
| KALALALALALALALALALK-NH2 [K(AL)9K] | > 100 | >100 | >100 |  |  |
| LALALALALALALALALALK-NH2 [L(AL)9K] |  |  |  |  | LC50 (cytotoxicity) (RAW264.7 macrophages): > 100 µM; MIC E. coli 25922 (E. coli 25922; [2]): >100 µM; MIC S. aureus 6538P (S. aureus 6538P; [2]): >100 µM; inhibition of IgE/DNP-BSA degranulation, in words (RBL-2H3 cells): no inhibition; Inhibition of Degranulation (%) (RBL-2H3 cells): 0%; Survival of anaphylactic shock (%) (Balb/c mice): 0%; protection from anaphylactic shock, in words (Balb/c mice; mouse, in vivo): failed also to give any protection |
| KKALALALALALALALALKK-NH2 [K2(AL)8K2] | > 100 | >100 | >100 |  | adverse effects in vivo (C57BL mice): not adversely affected |
| ALALALALALALALALALKK-NH2 [(AL)9K2] | > 100 | >100 | >100 | 4.4 | Inhibition of Degranulation (%) (RBL-2H3 cells): 30% |
| KALALALKALALKALALALK-NH2 [K(AL)3K(AL)2K(AL)3K] | 25 | 25 | 12.5 | 9.6 | inhibition of LPS activation of macrophages (TNFα secretion), in words (TLR4 activation by LPS): highly active |
| ALALALALALALALK-NH2 [(AL)7K] |  |  |  |  | LC50 (cytotoxicity) (RAW264.7 macrophages): > 100 µM; MIC E. coli 25922 (E. coli 25922; [2]): >100 µM; MIC S. aureus 6538P (S. aureus 6538P; [2]): >100 µM |
| KKAVAVAVAVAVAVAVAVKK-NH2 [K2(AV)8K2] | 90 | >100 | >100 |  | inhibition of LPS activation of macrophages (TNFα secretion), in words (TLR4 activation by LPS): medium inhibition; also recorded: lower activity; inhibition of LTA activation of macrophages (TNFα secretion), in words (TLR2 activation by LTA): good inhibition |
| KKALALALKK-NH2 [K2(AL)3K2, KKALALALKK] | > 100 | >100 | >100 | 10 to 15 | inhibition of LPS activation of macrophages (TNFα secretion), in words (TLR4 activation by LPS): inactive |
| KKALALALALALAKK-NH2 [K2(AL)5AK2, KKALALALALALAKK] | > 100 | >100 | >100 | 2.7 | inhibition of LPS activation of macrophages (TNFα secretion), in words (TLR4 activation by LPS): lower activity; inhibition (LPS neutralization) (TLR4 activation by LPS; peptide 20 μM): 50% |

Reference: patent publication US9346854B2, “Anti-inflammatory peptides and use thereof” (Yeda Research and Development Co. Ltd., priority 2012, dated 2016)
